Results reported in patent US20160137639A1, “TRIAZOLE-ISOXAZOLE COMPOUND AND MEDICAL USE THEREOF” (JAPAN TOBACCO INC., priority 2012, published 2016).
Like-named read-outs stand apart in the source and are kept apart here.

Experiments:
mouse RORγ = target: T1, mouse RORγ (Mus musculus, UniProt P51450); test: Luciferase reporter gene assay of inhibitory effect against RORγ transcriptional activity (GAL4-mRORγ plasmid in CHO cells); type: cell-based
T1 construct: mouse, NM_011281.2 and from Ile251 to Lys516; expressed in transfected cells; host or cells: CHO cells (transient co-transfection with pG5-Luc reporter)
T1 sequence (P51450 251-516): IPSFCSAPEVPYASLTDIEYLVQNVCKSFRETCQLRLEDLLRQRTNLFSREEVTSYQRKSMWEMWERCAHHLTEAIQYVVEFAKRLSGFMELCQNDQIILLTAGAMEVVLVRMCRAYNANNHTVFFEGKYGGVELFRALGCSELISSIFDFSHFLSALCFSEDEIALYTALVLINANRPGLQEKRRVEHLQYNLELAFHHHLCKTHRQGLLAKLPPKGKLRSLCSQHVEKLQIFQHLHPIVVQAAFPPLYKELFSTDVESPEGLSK
In short: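 Readout is intracellular luciferase after 2-day compound exposure (8 concentrations, 0.1% DMSO) in CHO cells expressing GAL4 fused to mouse RORγ LBD residues Ile251–Lys516 plus pG5-Luc reporter. EC50 fitted from %-of-control; points showing resazurin-detected cytotoxicity dropped.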

human RORγ = target: T2, human RORγ (Homo sapiens, UniProt P51449); test: Luciferase reporter gene assay of inhibitory effect against RORγ transcriptional activity (GAL4-hRORγ plasmid in CHO cells); type: cell-based
T2 construct: human, NM_005060.3 and from Ser253 to Lys518; expressed in transfected cells; host or cells: CHO cells (transient co-transfection with pG5-Luc reporter)
T2 sequence (P51449 253-518): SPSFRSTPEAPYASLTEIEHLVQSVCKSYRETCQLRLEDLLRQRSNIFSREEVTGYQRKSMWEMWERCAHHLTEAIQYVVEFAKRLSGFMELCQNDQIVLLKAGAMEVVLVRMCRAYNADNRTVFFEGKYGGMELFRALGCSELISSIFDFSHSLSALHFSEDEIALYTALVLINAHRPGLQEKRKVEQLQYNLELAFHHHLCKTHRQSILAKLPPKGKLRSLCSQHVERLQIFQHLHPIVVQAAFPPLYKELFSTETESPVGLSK

Structure (SMILES) | EC50 (mouse RORγ; read-out: LUC EC50 mRORg) | EC50 (human RORγ; read-out: LUC EC50 hRORg) | EC50 (mouse RORγ; read-out: LUC EC50 (μM) mRORg) | EC50 (human RORγ; read-out: LUC EC50 (μM) hRORg)
Cc1ccc(NC(=O)C[C@H](CCO)c2nnc([C@H]3C[C@@H](CC(F)(F)F)C3)n2C2CC2)c(C)c1 [Example F-587] | < 3 µM | < 3 µM | – | –
Cc1c(Cl)cccc1NC(=O)CCc1nnc(CCC(C)(C)C(=O)N(C)C)n1C1CC1 [Example F-239] | – | – | > 3 µM | > 3 µM
Cc1ccc(NC(=O)C[C@H](CCC(=O)O)n2nnc([C@H]3C[C@@H](CC(C)(C)C)C3)c2C2CC2)c(F)c1 [Example F-703] | < 3 µM | < 3 µM | – | –
Cc1ccc(NC(=O)CC(Cc2nc(=O)on2C)c2nnc([C@H]3C[C@@H](CC(C)C)C3)n2C2CC2)c(C)c1 (mixture of isomers) [Example F-485] | – | – | < 3 µM | < 3 µM
CC(=O)N1C[C@H](C(=O)Nc2ccc(C)cc2C)[C@@H](c2nnc(CCC(C)(C)C(C)C)n2C2CC2)C1 (racemic) [Example F-321] | – | – | < 3 µM | < 3 µM
Cc1ccc(NC(=O)CCc2nnc(CCC3CCC(F)(F)CC3)n2C2CC2)c(C)c1 [Example F-256] | – | – | < 3 µM | < 3 µM
Cc1ccc(NC(=O)C[C@H](CC(F)(F)F)c2nnc(-c3cc(CC(C)C)on3)n2C2CC2)c(C)c1 [Example F-567] | < 3 µM | < 3 µM | – | –
CC(C)CCc1nnc(CCC(=O)N[C@H](C)c2ccccc2)n1C1CC1 [Example F-63] | – | – | > 3 µM | > 3 µM
Cc1ccc(NC(=O)C[C@H](CCC(=O)O)c2noc3c2C(C)CCC3CCC(C)C)c(Cl)c1 (single isomer, unassigned) [Example F-695] | < 3 µM | > 3 µM | – | –
Cc1ccc(NC(=O)CCc2nnc([C@H]3C[C@@H](CC4CCCC4)C3)n2C2CC2)c(C)c1 [Example F-424] | – | – | < 3 µM | < 3 µM
Cc1c(Cl)cccc1NC(=O)CC(CCO)c1nnc(CCC2CCCCC2)n1C1CC1 (racemic) [Example F-247] | – | – | < 3 µM | < 3 µM
Cc1ccc(NC(=O)C(C)C(CCOCc2ccccc2)c2nnc([C@H]3C[C@@H](CC(C)C)C3)n2C2CC2)c(C)c1 (some centres unmarked) [Example F-489] | – | – | < 3 µM | > 3 µM
COC(=O)C(C)(C)CCc1nnc(CCC(=O)Nc2cccc(Cl)c2C)n1C1CC1 [Example F-210] | – | – | < 3 µM | < 3 µM
Cc1c(F)cccc1CNC(=O)CCc1nnc(CCC(C)C)n1C1CC1 [Example F-126] | – | – | > 3 µM | > 3 µM
Cc1ccc(NC(=O)[C@@H]2C[C@H](O)C[C@H]2c2nnc([C@H]3C[C@@H](CC(C)C)C3)n2C2CC2)c(C)c1 [Example F-471] | – | – | > 3 µM | > 3 µM
CCc1ccccc1NC(=O)CCc1nnc(CCC(C)C)n1C1CC1 [Example F-72] | – | – | > 3 µM | > 3 µM
Cn1c(CCC(=O)Nc2cccc3ccccc23)nnc1C1Cc2ccccc2C1 [Example F-8] | – | – | < 3 µM | > 3 µM
Cc1ccc(NCc2nnc(CCC(=O)Nc3cccc(Cl)c3C)n2C2CC2)cc1C [Example F-207] | – | – | < 3 µM | < 3 µM
Cc1cc(NC(=O)C[C@H](CC(=O)O)c2noc([C@H]3C[C@@H](CC(C)C)C3)c2C2CC2)n(C)n1 [Example F-669] | < 3 µM | > 3 µM | – | –
Cc1ccc(NC(=O)C[C@H](CCO)c2nnc(-c3cc(CCC(C)C)on3)n2C2CC2)c(C)c1 [Example F-615] | < 3 µM | < 3 µM | – | –
Cc1ccc(NC(=O)C(C)C(CCO)c2nnc([C@H]3C[C@@H](CC(C)C)C3)n2C2CC2)c(C)c1 (single isomer, unassigned) [Example F-493] | – | – | < 3 µM | < 3 µM
Cc1ccc(NC(=O)C[C@H](CCC(=O)O)c2noc(-c3nnc(CC(C)C)s3)c2C2CC2)c(Cl)c1 [Example E-14] | – | – | < 3 µM | < 3 µM
CCn1c(CCC(=O)Nc2cc(C)cc(C)c2)nnc1CCC(C)(C)C [Example F-46] | – | – | > 3 µM | > 3 µM
Cc1ccc(NC(=O)[C@H]2CN(C)C[C@@H]2c2nnc(-c3cc(CC(C)C)on3)n2C2CC2)c(C)c1 [Example F-618] | < 3 µM | < 3 µM | – | –
COC1C[C@@H](C(=O)Nc2ccc(C)cc2C)[C@H](c2nnc([C@H]3C[C@@H](CC(C)C)C3)n2C2CC2)C1 (single isomer, unassigned) [Example F-557] | > 3 µM | > 3 µM | – | –
